Drawing on patent US6620838B1, “Benzopyrazone compounds, compositions thereof, and methods of treatment therewith” (Signal Pharmaceuticals, Inc., priority 2002, dated 2003), this text covers IC50 for five compounds.

Type in all cases: cell-based
In experiment [1] the test system is MCF-7 breast cancer cells. The experiment can be described thus: Inhibition of MCF-7 breast cancer cell proliferation. Particulars: Homo sapiens, MCF7; 17β-estradiol (0.1 nM)-dependent growth, 72 h, 3H-thymidine incorporation. As to the method:
MCF-7 cells represent an excellent in vitro system to study the effects of compounds on estrogen-dependent breast cancer growth. (May, F. E. B.; Westley, B. R. J. Biol. Chem. 262:15894-15899, 1987). Benzopyranone compounds having an IC50<100 nM are particularly useful as anti-breast cancer agents in vivo.
MCF-7 breast carcinoma cells were plated in 24-well dishes at a density of 5×10^3 cells/well in phenol-red free DMEM:F-12 (1:1) medium containing 1% antibiotics, 0.05% mercaptoethanol, 0.01% ethanolamine, 0.42 ng/mL sodium selenite and 5% charcoal-stripped FCS.
Illustrative benzopyranone compounds (0.1-1000 nM in 0.2% DMSO) and 0.1 nM 17β-estradiol were added to the cultured MCF-7 breast cancer cells for 72 h. Subsequently, ^3H-labeled thymidine was added and its incorporation into cells was measured following 4 h incubation. The results are expressed as IC50 (nM) values (Table 2) which is the concentration of the benzopyranone compound necessary to inhibit the growth of MCF-7 breast cancer cells by 50% relative to controls.

Experiment [2] relates to BG-1 ovarian carcinoma cells. In words: Inhibition of BG-1 ovarian carcinoma cell proliferation. The following applies: 17β-estradiol (0.1 nM)-dependent growth, 72 h, 3H-thymidine incorporation. As to the method: BG-1 cells serve as a useful in vitro model for the evaluation of the effects of antiestrogenic compounds on ovarian tumor growth (Greenberger, L. M. et. al., Clin. Cancer Res. 7:3166-3177, 2001). Benzopyranone compounds having an IC50<100 nM are particularly useful as anti-ovarian cancer agents in vivo.
BG-1 ovarian carcinoma cells were plated in 24-well dishes at a density of 5×10^3 cells/well in phenol-red free DMEM:F-12 (1:1) medium containing 1% antibiotics, 0.05% mercaptoethanol, 0.01% ethanolamine, 0.42 ng/mL sodium selenite and 5% charcoal-stripped FCS. Illustrative benzopyranone compounds (0.1-1000 nM in 0.2% DMSO) and 0.1 nM 17β-estradiol were added to the cultured BG-1 ovarian carcinoma cells and incubated for 72 h. Subsequently, ^3H-labeled thymidine was added and its incorporation into cells was measured following 4h incubation. The results are expressed as IC50 (nM) values (Table 2) which is the concentration of the benzopyranone compound necessary to inhibit the growth of BG-1 ovarian carcinoma cells by 50% relative to controls.
Background: Dividing cells build labelled thymidine or BrdU into new DNA.

Experiment [3] deals with IL-6 release from human U-2 OS osteosarcoma cells stably transfected with human ER-α or ER-β. In words: Inhibition of IL-6 release. The following applies: U2OS, U-2 OS cells with ER-α or ER-β (table does not say which), stimulated with 2.5 ng/ml TNFα and 1 ng/ml IL-1β, IL-6 ELISA after 24 h. The procedure:
Illustrative benzopyranone compounds were tested for their ability to inhibit IL-6 release from human U-2 OS osteosarcoma cells stably transfected with human ER-α or ER-β. (Stein, B.; Yang, M. X. Mol. Cell. Biol 15: 4971-4979, 1995; Poli, V. et. al., EMBO J. 13:1189-1196, 1994). […] Benzopyranone compounds having an IC50<100 nM are particularly useful as bone resorption inhibitors in vivo. Accordingly, the compounds of this assay, illustrative benzopyranone compounds, are particularly useful for the treatment of osteoporosis, Paget's disease and metastatic bone cancer. These compounds are also useful as anti-cancer agents as elevated IL-6 levels are responsible for certain cancers such as multiple myeloma, prostate cancer, ovarian cancer, renal carcinoma and cervical carcinoma.
Human U-2 OS osteosarcoma cells (ATCC) were stably transfected with expression vectors for human full-length ER-α or ER-β, respectively, using standard molecular biology techniques. Stable subclones were generated that expressed high levels of ER-α or ER-β mRNA. The expression of ER-α and ER-β was confirmed using RNase protection analysis.
Cells were plated into 96-well plates at a density of 80,000 cells per well in phenol red-free media with charcoal-stripped fetal calf serum. Twenty four hours later, cells were either treated with vehicle (0.2% DMSO) or test compound ([…] in 0.2% DMSO). Thirty minutes later cells were stimulated with 2.5 ng/ml TNFα and 1 ng/ml IL-1β. Twenty-four hours later the media supernatant was analyzed for cytokine production (IL-6) using commercially available ELISA kits following the manufacturer's instructions. Cytokine production in the presence of vehicle (0.2% DMSO) was set to 100%. The results are expressed as IC50 (nM) values (Table 2) which is the concentration of the benzopyranone compound necessary to inhibit the production of IL-6 50% relative to the amount of IL-6 produced in the presence of vehicle.
(ELISA stands for enzyme-linked immunosorbent assay.)

For `C=C/C(=C\C=C\OCCN1CCCC1)Cc1c(-c2ccc(C(F)(F)F)cc2)c(=O)oc2cc(O)ccc12`, the half-inhibitory concentration (IC50) (as a rule, the concentration needed to halve the response being measured) came to 15.8 nM in experiment [1], 9.35 nM in experiment [2] and 1.45 nM in experiment [3].

Regarding `O=c1oc2cc(O)ccc2c(Cc2ccc(OCCN3CCCC3)cc2)c1-c1ccc(C(F)(F)F)cc1Cl`, the figures for the IC50 in experiment [1], in experiment [2] and in experiment [3] were 5.5 nM, 3.4 nM and 0.4 nM, respectively.

As for `O=c1oc2cc(O)ccc2c(Cc2ccc(OCCN3CCCC3)cc2)c1-c1ccc(C(F)(F)F)cc1C(F)(F)F`, the IC50 in experiment [1] is 19 nM; in experiment [2], 6.6 nM; in experiment [3], 0.41 nM.

For `O=c1oc2cc(O)ccc2c(Cc2ccc(OCCN3CCCC3)cc2)c1-c1ccc(Cl)cc1C(F)(F)F`, the IC50 in experiment [1] was 4.1 nM; in experiment [2], 3.2 nM; in experiment [3], 0.45 nM.

Take `O=c1oc2cc(O)ccc2c(Cc2ccc(OCCN3CCCC3)cc2)c1-c1ccc(Cl)cc1Cl`: the values for the IC50 in experiment [1], in experiment [2] and in experiment [3] were 5.4 nM, 0.69 nM and 0.32 nM, respectively.
